Where two headings read alike, the source gives them in different places.
Key:
[1] = system: HCV replicon cells Huh 9B; experiment: HCV replicon assay (luciferase readout); assay type: cell-based
Summary of the method: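 Compounds, made up at twice final strength (final DMSO 1%), were added to subgenomic replicon cells one day after plating. Incubation then ran 72 h at 37 °C, 5% CO2, without G418. Replication was quantified as firefly luciferase luminescence in lysed cells, with cytotoxicity assessed on a duplicate clear plate.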

[2] = system: HCV replicon cells Huh 9B; assay type: cell-based
[3] = Hepatitis C virus, 72 h, concentration reducing replicon level (luciferase activity) by 50% vs untreated cell control, 72 h incubation
[4] = concentration reducing total cell area by 50% relative to DMSO controls, methylene blue, absorbance 620 nm, 72 h incubation

Row | Structure (SMILES) | IC50 [1, 3] [nM] | TD50 [2, 4] | IC50 [1] [nM] | TD50 [2]
1 | Cc1ccc(NC(=O)c2cn[nH]c2)cc1-c1ccc(C(=O)Nc2ccc(N3CCOCC3)cc2)cc1 [Example 108, 1H-Pyrazole-4-carboxylic acid [6-methyl-4′-(4-morpholin-4-yl-phenylcarbamoyl)-biphenyl-3-yl]-amide] | 1000 to 5000 | ** (** > 50 μM) |  | 
2 | Cc1ccc(NC(=O)c2ccc(CN3CCS(=O)(=O)CC3)cc2)cc1-c1ccc(C(=O)NCc2cccc(Cl)c2)cc1 [Example 162, 5′-[4-(1,1-Dioxo-1lambda*6*-thiomorpholin-4-ylmethyl)-benzoylamino]-2′-methyl-biphenyl-4-carboxylic acid 3-chloro-benzylamide] | 1000 to 5000 | * (* < 50 μM) |  | 
3 | Cc1ccc(C(=O)Nc2ccc(N3CCOCC3)cc2)cc1-c1ccc(C(=O)Nc2ccccc2CN2CCCCC2)cc1 [Example 80, 6-Methyl-biphenyl-3,4′-dicarboxylic acid 3-[(4-morpholin-4-yl-phenyl)-amide] 4′-[(2-piperidin-1-ylmethyl-phenyl)-amide]] |  |  | 1000 to 5000 | * (key: * < 50 μM; ** > 50 μM)
4 | Cc1ccc(C(=O)Nc2ccc(N3CCOCC3)cc2)cc1-c1ccc(CNCCN(C)C)cc1 [Example 102, 4′-[(2-Dimethylamino-ethylamino)-methyl]-6-methyl-biphenyl-3-carboxylic acid (4-morpholin-4-yl-phenyl)-amide] | 1000 to 5000 | * (* < 50 μM) |  | 
5 | Cc1ccc(C(=O)Nc2ccc(N3CCOCC3)cc2)cc1-c1ccc(C(=O)NCCC(C)C)cc1 [Example 4, 6-Methyl-biphenyl-3,4′-dicarboxylic acid 4′-[(3-methyl-butyl)-amide] 3-[(4-morpholin-4-yl-phenyl)-amide]] |  |  | 1000 to 5000 | ** (key: * < 50 μM; ** > 50 μM)
6 | Cc1ccc(C(=O)NCC2CCCO2)cc1-c1ccc(C(=O)Nc2ccc(CN3CCS(=O)(=O)CC3)cc2)cc1 (stereo not shown) [Example 124, 6-Methyl-biphenyl-3,4′-dicarboxylic acid 4′-{[4-(1,1-dioxo-1lambda*6*-thiomorpholin-4-ylmethyl)-phenyl]-amide} 3-[(tetrahydro-furan-2-ylmethyl)-amide]] |  |  | 1000 to 5000 | * (key: * < 50 μM; ** > 50 μM)
7 | Cc1ccc(CNC(CO)Cc2cnc[nH]2)cc1-c1ccc(C(=O)Nc2ccc(CN3CCS(=O)(=O)CC3)cc2)cc1 (stereo not shown) [Example 200, 5′-{[1-Hydroxymethyl-2-(3H-imidazol-4-yl)-ethylamino]-methyl}-2′-methyl-biphenyl-4-carboxylic acid [4-(1,1-dioxo-1lambda*6*-thiomorpholin-4-ylmethyl)-phenyl]-amide] | > 5000 | ** (** > 50 μM) |  | 
8 | CCOC(=O)c1ccc(-c2cc(NC(=O)OC(C)(C)C)ccc2C)cc1 [Example 210, 5′-tert-Butoxycarbonylamino-2′-methyl-biphenyl-4-carboxylic acid ethyl ester] | 1000 to 5000 | * (* < 50 μM) |  | 
9 | Cc1cccc(CNC(=O)c2ccc(-c3cc(NC(=O)c4cn[nH]c4)ccc3C)cc2)c1 [Example 214, 1H-Pyrazole-4-carboxylic acid [6-methyl-4′-(3-methyl-benzylcarbamoyl)-biphenyl-3-yl]-amide] | > 5000 | * (* < 50 μM) |  | 
10 | Cc1ccc(C(=O)N2CCC(N3CCCC3)CC2)cc1-c1ccc(C(=O)Nc2ccc(CN3CCS(=O)(=O)CC3)cc2)cc1 [Example 128, 2′-Methyl-5′-(4-pyrrolidin-1-yl-piperidine-1-carbonyl) -biphenyl-4-carboxylic acid [4-(1,1-dioxo-1lambda*6*-thiomorpholin-4-ylmethyl)-phenyl]-amide] | 1000 to 5000 | * (* < 50 μM) |  | 
11 | Cc1ccc(NC(=O)C2CC2)cc1-c1ccc(C(=O)Nc2ccc(CN3CCCC3)cc2)cc1 [Example 230, 5′-(Cyclopropanecarbonyl-amino)-2′-methyl-biphenyl-4-carboxylic acid (4-pyrrolidin-1-ylmethyl-phenyl)-amide] | 1000 to 5000 | * (* < 50 μM) |  | 
12 | CNS(=O)(=O)c1ccc(NC(=O)c2ccc(-c3cc(C(=O)Nc4ccc(N5CCOCC5)cc4)ccc3C)cc2)cc1 [Example 29, 6-Methyl-biphenyl-3,4′-dicarboxylic acid 4′-[(4-methylsulfamoyl-phenyl)-amide] 3-[(4-morpholin-4-yl-phenyl)-amide]] |  |  | < 1000 | ** (key: * < 50 μM; ** > 50 μM)
13 | COc1cccc(NC(=O)c2cccc(-c3ccc(C(=O)Nc4ccc(N5CCOCC5)cc4)cc3C)c2)c1 [Example 62, 2′-Methyl-biphenyl-3,4′-dicarboxylic acid 3-[(3-methoxy-phenyl)-amide] 4′-[(4-morpholin-4-yl-phenyl)-amide]] |  |  | < 1000 | * (key: * < 50 μM; ** > 50 μM)
14 | Cc1ccc(C(=O)Nc2ccc(N3CCOCC3)cc2)cc1-c1ccc(C(=O)NCc2ccc(N3CCOCC3)cc2)cc1 [Example 20, 6-Methyl-biphenyl-3,4′-dicarboxylic acid 4′-(4-morpholin-4-yl-benzylamide) 3-[(4-morpholin-4-yl-phenyl)-amide]] |  |  | > 5000 | ** (key: * < 50 μM; ** > 50 μM)
15 | Cc1ccc(NC(=O)CC2CCCC2)cc1-c1ccc(C(=O)Nc2ccc(CN3CCS(=O)(=O)CC3)cc2)cc1 [Example 166, 5′-(2-Cyclopentyl-acetylamino)-2′-methyl-biphenyl-4-carboxylic acid [4-(1,1-dioxo-1lambda*6*-thiomorpholin-4-ylmethyl)-phenyl]-amide] | < 1000 | * (* < 50 μM) |  | 
16 | CC(=O)Nc1cccc(NC(=O)c2ccc(-c3cc(C(=O)Nc4ccc(N5CCOCC5)cc4)ccc3C)cc2)c1 [Example 72, 6-Methyl-biphenyl-3,4′-dicarboxylic acid 4′-[(3-acetylamino-phenyl)-amide] 3-[(4-morpholin-4-yl-phenyl)-amide]] |  |  | 1000 to 5000 | * (key: * < 50 μM; ** > 50 μM)
17 | CCCS(=O)(=O)N1CCN(Cc2ccc(NC(=O)c3ccc(-c4cc(NC(=O)C5CC5)ccc4OC(F)(F)F)cc3)cc2)CC1 [Example 237, 5′-(Cyclopropanecarbonyl-amino)-2′-trifluoromethoxy-biphenyl-4-carboxylic acid {4-[4-(propane-1-sulfonyl)-piperazin-1-ylmethyl]-phenyl}-amide] | < 1000 | * (* < 50 μM) |  | 
18 | COc1ccc(C(=O)Nc2ccc(-c3cc(C(=O)Nc4ccc(N5CCOCC5)cc4)ccc3C)cc2)cc1OC [Example 110, 4′-(3,4-Dimethoxy-benzoylamino)-6-methyl-biphenyl-3-carboxylic acid (4-morpholin-4-yl-phenyl)-amide] | 1000 to 5000 | ** (** > 50 μM) |  | 
19 | Cc1ccc(NC(=O)C2CC2)cc1-c1ccc(NC(=O)c2ccc(CN3CCS(=O)(=O)CC3)cc2)cc1 [Example 149, N-[5′-(Cyclopropanecarbonyl-amino)-2′-methyl-biphenyl-4-yl]-4-(1,1-dioxo-1lambda*6*-thiomorpholin-4-ylmethyl)-benzamide] | < 1000 | * (* < 50 μM) |  | 
20 | CCC1(c2ccc(NC(=O)c3ccc(-c4cc(NC(=O)C5CC5)ccc4C)cc3)cc2)CCC(=O)NC1=O (stereo not shown) [Example 220, 5′-(Cyclopropanecarbonyl-amino)-2′-methyl-biphenyl-4-carboxylic acid [4-(3-ethyl-2,6-dioxo-piperidin-3-yl)-phenyl]-amide] | < 1000 | * (* < 50 μM) |  | 

From patent publication US8008303B2, “Biphenyl derivatives and their use in treating hepatitis C” (AstraZeneca AB, priority 2005, dated 2011)
